Laboratory results reported in doi:10.1101/2025.07.04.663216, “A Computational Workflow for Structure-Guided Design of Potent and Selective Kinase Peptide Substrates” (bioRxiv, 2025).

How the values were obtained:
ALK [1] = target: T1, ALK (Homo sapiens, UniProt Q9UM73); experiment: ADP-Glo kinase assay, ALK; type: biochemical; settings: ADP-Glo luminescence; vs parent KSRGDYMTMQIG (axltide); enzyme 1.25–10 nM, ATP 10 μM, peptide 1 μM, 90 min, 25°C; repeated twice, mean
T1 construct: purchased Carna Biosciences 08–518
T1 sequence (Q9UM73 19-1620): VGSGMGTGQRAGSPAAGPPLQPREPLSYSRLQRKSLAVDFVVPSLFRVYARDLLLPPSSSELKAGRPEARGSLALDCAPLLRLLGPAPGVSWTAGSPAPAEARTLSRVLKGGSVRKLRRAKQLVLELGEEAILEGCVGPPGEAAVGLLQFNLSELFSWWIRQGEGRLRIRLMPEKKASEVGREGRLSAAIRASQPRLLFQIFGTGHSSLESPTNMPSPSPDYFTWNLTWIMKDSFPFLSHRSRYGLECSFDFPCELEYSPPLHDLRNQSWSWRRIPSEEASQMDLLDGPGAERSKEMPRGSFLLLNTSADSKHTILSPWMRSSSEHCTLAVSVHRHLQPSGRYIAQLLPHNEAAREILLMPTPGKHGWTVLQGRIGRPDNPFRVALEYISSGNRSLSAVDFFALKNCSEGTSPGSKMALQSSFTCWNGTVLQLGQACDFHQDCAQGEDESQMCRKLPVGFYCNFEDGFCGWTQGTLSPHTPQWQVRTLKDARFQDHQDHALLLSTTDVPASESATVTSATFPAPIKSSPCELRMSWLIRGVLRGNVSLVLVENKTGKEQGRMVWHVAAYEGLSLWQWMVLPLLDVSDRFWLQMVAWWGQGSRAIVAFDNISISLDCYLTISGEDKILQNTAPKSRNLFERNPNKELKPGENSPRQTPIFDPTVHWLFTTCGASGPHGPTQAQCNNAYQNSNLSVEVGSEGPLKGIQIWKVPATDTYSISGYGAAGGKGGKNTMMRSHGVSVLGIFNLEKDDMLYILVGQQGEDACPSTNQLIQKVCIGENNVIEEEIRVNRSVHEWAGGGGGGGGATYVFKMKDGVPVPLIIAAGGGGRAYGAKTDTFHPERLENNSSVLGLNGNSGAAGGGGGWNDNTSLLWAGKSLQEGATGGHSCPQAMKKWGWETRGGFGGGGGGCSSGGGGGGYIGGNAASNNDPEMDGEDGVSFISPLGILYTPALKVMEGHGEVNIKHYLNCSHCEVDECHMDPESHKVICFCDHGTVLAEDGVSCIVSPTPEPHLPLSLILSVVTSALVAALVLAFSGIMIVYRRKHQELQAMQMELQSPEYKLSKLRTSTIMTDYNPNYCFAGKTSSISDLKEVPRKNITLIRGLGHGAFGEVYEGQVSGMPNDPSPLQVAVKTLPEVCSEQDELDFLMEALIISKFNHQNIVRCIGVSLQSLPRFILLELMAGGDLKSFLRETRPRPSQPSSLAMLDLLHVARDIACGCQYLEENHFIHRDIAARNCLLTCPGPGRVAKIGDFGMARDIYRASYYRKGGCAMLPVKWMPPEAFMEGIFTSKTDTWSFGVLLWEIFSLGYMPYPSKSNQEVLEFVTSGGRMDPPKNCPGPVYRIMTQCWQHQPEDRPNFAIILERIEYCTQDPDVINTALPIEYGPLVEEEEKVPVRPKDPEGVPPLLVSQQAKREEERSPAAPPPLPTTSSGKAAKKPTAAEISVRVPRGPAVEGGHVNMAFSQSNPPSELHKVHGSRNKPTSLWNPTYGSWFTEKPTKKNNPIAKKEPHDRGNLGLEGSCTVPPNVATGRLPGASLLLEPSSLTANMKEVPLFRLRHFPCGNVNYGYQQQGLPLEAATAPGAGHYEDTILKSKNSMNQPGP
Excerpt: (§1) To experimentally evaluate the computationally optimized peptide sequences, we chose five kinases based on commercial availability. Using the ipAE, pLDDT, and ipTM scores, we ranked the Subtimizer-designed sequences, and for each kinase we selected two to five peptides for synthesis and experimental testing. We evaluated the activity of the peptides using the ADP-Glo kinase assay, a luminescence-based method that quantifies ADP production as a measure of kinase activity. First, we measured the ADP-Glo signals for the parental peptide and the baseline (no enzyme background) for the five kinases. […] The varying signal intensities across different kinases reflect differences in their specific activities and the efficiency of the parent peptide substrates.
(§2) ADP-Glo Kit (ADP-Glo™ Kinase Assay, Cat#V6930) was obtained from Promega. The kinases ALK (#08–518), MET (#08–151), ROS1 (#08–163), and EGFR L858R (#08–502) were products of Carna Biosciences. SRC was expressed and purified as previously reported. Substrate peptides were obtained from Biomatik Corporation (Wilmington, DE, USA). All components were equilibrated to 25°C prior to setting up reactions in 384-well microplates (White ProxiPlate 384-shallow well Plus). […] Experiments were repeated twice with results expressed as mean ± standard deviation. Luminescence was detected on a Synergy Neo2 plate reader.

ROS1 [2] = target: T2, ROS1 (Homo sapiens, UniProt P08922); experiment: ADP-Glo kinase assay, ROS1; type: biochemical; settings: ADP-Glo luminescence; vs parent EEPLYWSFPAK; enzyme 1.25–10 nM, ATP 10 μM, peptide 1 μM, 90 min, 25°C; repeated twice, mean
T2 construct: purchased Carna Biosciences 08–163
T2 sequence (P08922 28-2347): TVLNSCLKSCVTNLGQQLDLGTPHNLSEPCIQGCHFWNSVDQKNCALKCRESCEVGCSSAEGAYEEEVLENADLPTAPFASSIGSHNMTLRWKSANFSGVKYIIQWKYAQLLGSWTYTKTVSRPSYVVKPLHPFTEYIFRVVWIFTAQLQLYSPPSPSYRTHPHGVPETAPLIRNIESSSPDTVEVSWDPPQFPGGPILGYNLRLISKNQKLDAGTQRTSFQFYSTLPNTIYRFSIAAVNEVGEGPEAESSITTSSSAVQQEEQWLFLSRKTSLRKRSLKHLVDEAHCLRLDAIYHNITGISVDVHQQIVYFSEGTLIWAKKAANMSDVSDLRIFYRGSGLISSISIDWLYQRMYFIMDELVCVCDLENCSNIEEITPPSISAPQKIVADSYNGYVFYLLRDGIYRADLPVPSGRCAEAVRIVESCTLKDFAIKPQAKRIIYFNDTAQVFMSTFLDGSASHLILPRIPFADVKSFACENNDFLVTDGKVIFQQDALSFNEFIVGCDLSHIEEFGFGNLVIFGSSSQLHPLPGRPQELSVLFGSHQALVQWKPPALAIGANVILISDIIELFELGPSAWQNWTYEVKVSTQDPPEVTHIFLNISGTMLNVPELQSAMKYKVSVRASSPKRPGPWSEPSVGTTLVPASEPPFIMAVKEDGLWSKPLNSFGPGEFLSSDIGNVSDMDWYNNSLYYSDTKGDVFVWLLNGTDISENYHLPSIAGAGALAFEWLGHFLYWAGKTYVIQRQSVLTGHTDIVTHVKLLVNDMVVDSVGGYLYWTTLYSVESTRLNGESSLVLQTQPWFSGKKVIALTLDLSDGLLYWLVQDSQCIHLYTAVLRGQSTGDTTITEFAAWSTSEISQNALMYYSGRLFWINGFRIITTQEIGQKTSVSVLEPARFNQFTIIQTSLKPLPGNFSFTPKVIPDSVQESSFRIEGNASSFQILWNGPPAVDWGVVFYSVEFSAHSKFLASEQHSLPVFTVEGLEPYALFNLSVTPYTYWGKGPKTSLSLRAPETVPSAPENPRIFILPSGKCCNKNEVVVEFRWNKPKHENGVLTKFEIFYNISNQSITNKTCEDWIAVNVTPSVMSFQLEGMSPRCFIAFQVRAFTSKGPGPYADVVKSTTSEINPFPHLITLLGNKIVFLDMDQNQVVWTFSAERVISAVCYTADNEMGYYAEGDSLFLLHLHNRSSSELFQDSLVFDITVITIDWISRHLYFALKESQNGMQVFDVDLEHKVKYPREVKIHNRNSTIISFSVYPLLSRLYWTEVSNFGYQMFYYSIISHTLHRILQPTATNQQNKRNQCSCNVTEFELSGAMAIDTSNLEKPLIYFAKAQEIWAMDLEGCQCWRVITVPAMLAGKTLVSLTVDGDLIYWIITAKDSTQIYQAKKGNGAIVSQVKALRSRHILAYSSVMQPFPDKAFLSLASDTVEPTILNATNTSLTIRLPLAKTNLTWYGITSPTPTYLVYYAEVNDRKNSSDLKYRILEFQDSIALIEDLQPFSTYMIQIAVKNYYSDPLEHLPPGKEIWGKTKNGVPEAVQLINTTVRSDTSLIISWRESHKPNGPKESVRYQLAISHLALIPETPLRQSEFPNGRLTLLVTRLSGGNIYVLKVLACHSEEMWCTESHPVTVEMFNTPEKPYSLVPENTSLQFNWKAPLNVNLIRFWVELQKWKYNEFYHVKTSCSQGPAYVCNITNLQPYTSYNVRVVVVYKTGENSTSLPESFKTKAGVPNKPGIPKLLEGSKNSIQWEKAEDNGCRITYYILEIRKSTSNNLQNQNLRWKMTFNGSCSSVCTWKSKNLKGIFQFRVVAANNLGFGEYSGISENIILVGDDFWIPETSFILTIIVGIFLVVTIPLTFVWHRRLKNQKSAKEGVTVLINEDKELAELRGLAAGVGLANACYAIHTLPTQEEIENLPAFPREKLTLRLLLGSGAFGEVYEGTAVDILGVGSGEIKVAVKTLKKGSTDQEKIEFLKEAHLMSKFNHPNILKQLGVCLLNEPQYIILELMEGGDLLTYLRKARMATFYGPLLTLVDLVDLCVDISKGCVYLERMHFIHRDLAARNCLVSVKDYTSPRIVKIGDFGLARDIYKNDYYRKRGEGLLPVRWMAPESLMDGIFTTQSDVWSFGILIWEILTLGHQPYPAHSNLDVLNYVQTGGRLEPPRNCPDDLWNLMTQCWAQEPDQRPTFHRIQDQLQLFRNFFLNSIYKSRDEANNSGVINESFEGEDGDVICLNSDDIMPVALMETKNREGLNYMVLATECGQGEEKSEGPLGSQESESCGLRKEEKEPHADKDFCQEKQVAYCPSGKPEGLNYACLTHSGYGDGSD
Excerpt: as §1, §2

ROS1 [3] = target: T2, ROS1; experiment: LIMS-kinase assay kinetic analysis (Km), ROS1; type: biochemical; settings: for Km: LIMS-kinase, MS signal of ADP fragment, ATP 100 μM, peptide from 300–400 μM, 2- or 3-fold dilutions, 25°C, Michaelis-Menten fit, repeated twice
Excerpt: (§3) Figures 3A and 3B illustrate the schematic of a kinase assay reaction and the multiple reaction monitoring (MRM) phosphorylation detection system employed in the LIMS-kinase assay. The MRM setup comprises a RapidFire liquid chromatography sampler (Agilent) coupled to a triple quadrupole mass spectrometer (AB Sciex 6500). Quadrupole 1 (Q1) acts as a mass filter, selecting precursor ions based on their mass-to-charge ratios. Q2 functions as a collision cell, fragmenting these precursor ions into product ions. Q3 serves as an additional mass filter, specifically monitoring desired product ion fragments originating from the Q1-selected parent ion (Figure 3B).
(§4) To determine kinase activity, we directly measured ADP production by following specific ADP ion fragments rather than quantifying phosphorylated peptide fragments as in our original published LIMS-kinase assay. We chose to measure ADP production rather than the phosphorylated peptide product to avoid potential variations in ionization efficiency or fragmentation patterns that can arise from differences in amino acid sequences and physicochemical properties of different peptide substrates. This ensures not only a more direct and unbiased comparison of potency across different peptides, but also broad applicability of optimized substrates across different assay platforms. Initial tests confirmed that we were able to selectively detect an ADP fragment in kinase/peptide reactions (Figure S5). The ADP signal was enzyme concentration- and time-dependent, consistent with the expected response of a functional assay. […] We evaluated two enzyme concentrations with the objective of selecting the concentration where activity was linear to 60 minutes with a strong signal (Figure S5). […]
(§5) Final working concentrations of enzyme varied by kinase. […] Activity was evaluated by measuring MS signal of ADP-specific fragment ion. Experiments were repeated twice, with results expressed as mean ± standard deviation.
(§6) Km was evaluated by linear regression of the first three time-points at each concentration of peptide. […]

MET [4] = target: T3, MET (Homo sapiens, UniProt P08581); experiment: Peptide selectivity assay (LIMS-kinase), MET; type: biochemical; settings: LIMS-kinase ADP production; MET 5 nM, peptides 134 μM, ATP 100 μM, 30 min, room temperature; repeated twice
T3 construct: purchased Carna Biosciences 08–151
Method: (§7) All components equilibrated to 25°C prior to setting up reactions. All reagents added manually. Peptides added to 384-well microplates (Costar 3657 round bottom polypropylene). A pre-mixed buffer, enzyme, and ATP solution was added to initiate reaction. Reaction was quenched with 1% formic acid (final) following 30-minute incubation at room temperature. Kinase activity was evaluated by measuring MS signal of ADP-specific fragment ion. Experiments were repeated twice, with results expressed as mean ± standard deviation. Time 0 (background) values were subtracted from subsequent time-points.
(§8) RapidFire liquid chromatography and mass spectrometry methods were performed as previously described.

ALK [5] = target: T1, ALK; experiment: LIMS-kinase assay kinetic analysis (Km), ALK; type: biochemical; settings: MS signal of ADP fragment, ATP 100 μM, peptide from 300–400 μM, 2- or 3-fold dilutions, 25°C, Michaelis-Menten fit, repeated twice
Excerpt: as §3
To determine kinase activity, we directly measured ADP production by following specific ADP ion fragments rather than quantifying phosphorylated peptide fragments as in our original published LIMS-kinase assay. […] We evaluated two enzyme concentrations with the objective of selecting the concentration where activity was linear to 60 minutes with a strong signal (Figure S5). […]
as §5, §6

EGFR L858R = experiment: ADP-Glo kinase assay, EGFR L858R; type: biochemical; settings: ADP-Glo luminescence; vs parent KEEIYFFF; enzyme 1.25–10 nM, ATP 10 μM, peptide 1 μM, 90 min, 25°C; repeated twice, mean
Excerpt: as §1, §2

[6] = Peptide solubility observed in Km study; type: physicochemical; settings: observation in the Km study with EGFR L858R; peptide concentrations started at 300–400 μM
Excerpt: We ran LIMS-kinase assays using a range of peptide concentrations. We plotted the initial reaction rate for each concentration to generate Michaelis-Menten curves. […] We could not run a successful Km study with EGFR L858R due to the insolubility of the parental MS-csktide1 peptide at high concentrations, similar to our previous observation.

MET [7] = target: T3, MET; experiment: ADP-Glo kinase assay, MET; type: biochemical; settings: ADP-Glo luminescence; vs parent EEPLYWSFPAK; enzyme 1.25–10 nM, ATP 10 μM, peptide 1 μM, 90 min, 25°C; repeated twice, mean
Excerpt: as §1, §2

MET [8] = target: T3, MET; experiment: LIMS-kinase assay kinetic analysis (Km), MET; type: biochemical; settings: for Km: LIMS-kinase, MS signal of ADP fragment, ATP 100 μM, peptide from 300–400 μM, 2- or 3-fold dilutions, 25°C, Michaelis-Menten fit, repeated twice
Excerpt: as §3, §4, §5, §6

ROS1 [9] = target: T2, ROS1; experiment: Peptide selectivity assay (LIMS-kinase), ROS1; type: biochemical; settings: LIMS-kinase ADP production; ROS1 0.63 nM, peptides 20.3 μM, ATP 100 μM, 30 min, room temperature; repeated twice
Method: as §7, §8

In the case of “HSPEDYMWVEME [alk-s5, designed ALK peptide substrate …]”, the “relative percentage change (increase) in kinase activity compared to parent peptide” value (“relative percentage change (increase)” below) (ALK [1]) is reported as 146%.
In the case of KEPFYMRLKPK [ros1-s2], the “relative percentage change (increase)” value (ROS1 [2]) is reported as “about 35%”, the Km (ROS1 [3]) is reported as 20.3 µM and the “improvement in apparent binding affinity (Km) vs parental MS-srctide” value (ROS1 [3]; ROS1, Km 47.59 to 20.30 µM) is reported as over 2 fold. For the same sequence, the “reduction in MET kinase activity compared to met-s1” value (MET [4]) was “over 4 fold”.
“HDPEDYMWVEMR [alk-s3, designed ALK peptide substrate …]” showed a Km (ALK [5]) of 14.1 µM.
With “KSRGDYMTMQIG [MS-axltide, parental peptide substrate … used for ALK, reference compound]” the Km (ALK [5]) was 18.4 µM.
In the case of “PDPDDYMLMEIG [alk-s4, designed ALK peptide substrate …]”, the “relative percentage change (increase)” value (ALK [1]) is reported as 130%.
For “EPEDYAPV [egfr-s1, designed EGFR L858R peptide substrate EPEDYAPV]”, the “relative percentage change (increase)” value (EGFR L858R) was “about 10%”.
In the case of “KEEIYFFF [MS-csktide1, parental peptide substrate KEEIYFFF used for EGFR L858R]”, the “solubility at high concentrations” value [6] is reported as “insolubility”.
With EEPAYVALPAK [met-s1] the “relative percentage change (increase)” value (MET [7]) was “approximately 41%”, the Km (MET [8]) was 134 µM and the “reduction in Km vs parental MS-srctide” value (MET [8]; MET, Km 288 to 134 µM) was “over 2 fold”. For the same sequence, the “reduction in ROS1 kinase activity compared to ros1-s2” value (ROS1 [9]) was “over 11 fold”.
With EPEGYAPL [egfr-s2] the “relative percentage change (increase)” value (EGFR L858R) was “approximately 5%”.
In the case of “EEPLYVALPAP [met-s2, designed MET peptide substrate …]”, the “relative percentage change (increase)” value (MET [7]) is reported as about 11%.
Sequence “EEPLYWSFPAK [MS-srctide, parental peptide substrate … for many kinases including MET and ROS1, reference compound]” has a Km (ROS1 [3]) of 47.6 µM and a Km (MET [8]) of 288 µM.
